In patent publication US10759826B2, “15β-substituted estrone derivatives as selective inhibitors of 17β-hydroxysteroid-dehydrogenases, method of preparation and use thereof” (USTAV ORGANICKE CHEMIE A BIOCHEMIE AV CR, V.V.I., priority 2016, dated 2020):
Several values for one entry are separate records, joined by “and”; a condition that tells them apart may be missing. Equal entries are not always repeated. Entries after “also recorded” stand apart in the source; their conditions may differ.

Key:
A549 = test: MTT cytotoxicity assay, A549; format: cell-based; conditions: Homo sapiens
From the text: (§1) Compounds 5, 6, 7, 9, 14 and 15 were used for evaluation of antitumor activity. MTT cytotoxicity assay was used in vitro on cell lines derived from normal tissues and from tumors. Specifically, these were the K562 line (human myeloid leukemia), K562-Tax (human myeloid leukemia resistant to taxol and overexpressing PgP protein for multidrug resistance), CEM (T-lymphoblastic leukemia), CEM-DNR bulk (T-lymphoblastic leukemia resistant doxorubicin, lacking the expression of the target gene for inhibitors of topoisomerase II alpha), A549 line (human lung adenocarcinoma), HCT116p53 wt (human colon cancer), HCT116p53−/− (human colon cancer, mutant p53), U2OS line of human osteosarcoma and two fibroblast lines MRC5 and BJ as examples of non-tumor cells. Expression characteristics, profiles of susceptibility to classical antitumor drugs and methodology of the MTT cytotoxicity assay were repeatedly published (e.g. Noskova et al. Neoplasma 2002, 49, 418; S̆arek et. al. J. Med. Chem. 2003, 46, 25, 5402).

MRCS = test: MTT cytotoxicity assay, MRC5 fibroblasts; format: cell-based; conditions: Homo sapiens, Fibroblast, non-tumor fibroblasts
From the text: as §1

human 17βHSD1 [1] = biological target: T1, human 17βHSD1 (Homo sapiens, UniProt P14061); test: 17βHSD inhibition in MCF-7 cells transfected with human 17βHSD1, E1 in supernatant; format: cell-based; design: expressed in transfected cells; host or cells: MCF-7; conditions: 10 μmol·l^−1
T1 sequence (P14061 1-328): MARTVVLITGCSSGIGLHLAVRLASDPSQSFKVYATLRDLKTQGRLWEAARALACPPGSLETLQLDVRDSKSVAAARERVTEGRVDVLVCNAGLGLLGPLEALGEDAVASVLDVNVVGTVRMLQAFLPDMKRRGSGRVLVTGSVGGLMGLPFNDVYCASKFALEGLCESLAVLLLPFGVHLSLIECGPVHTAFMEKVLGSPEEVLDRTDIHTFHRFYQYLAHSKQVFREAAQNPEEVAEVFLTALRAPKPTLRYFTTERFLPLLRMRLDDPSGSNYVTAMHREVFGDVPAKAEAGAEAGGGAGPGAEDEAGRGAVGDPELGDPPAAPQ
Protocol: (§2) For this experiment, non-cytotoxic concentrations of estrone derivative (10 μmol·l^−1) were used. E1 levels were determined by an immuno-enzymatic assay.

T47D cells = test: E1 induced proliferation of T47D cells, 7 days, cell count; format: cell-based, human; conditions: FIG. 1
From the text: Two days prior to testing of compounds, growth medium was changed to medium without phenol red, supplemented with 2 mmol^·l^−1 Glutamax and 4% FBS depleted of lipophilic components (including the endogenous estrogenic substances) (Hyclone, GE Healthcare Life Sciences, USA). Two days after the medium replacement, the cells were harvested, counted and resuspended in a medium. Cells were dispensed with liquid dispenser Multidrop (Thermo Fisher Scientific, Waltham, USA), to the cell culture treated, 12-well plates (Corning Inc., NY, USA) at 100 000 cells/well in 1 mL of total media volume. Compounds diluted in the medium were added 24 h later and cells were incubated for 7 more days with or without 1 μmol^·l^−1 E1. Growth medium was changed during the experiment on day 3, and freshly diluted compounds were added to cells again. After 7 days of cell cultivation with compounds, cells were harvested and counted. Cell number was normalized and 100% was attributed to cells cultivated in the presence of 1 μmol^·l^−1 E1 and 0% to the cells cultivated without any added compound.

CEM = test: MTT cytotoxicity assay, CEM; format: cell-based; conditions: Homo sapiens, CCRF-CEM
From the text: as §1

K562-Tax = test: MTT cytotoxicity assay, K562-Tax; format: cell-based; conditions: Homo sapiens
From the text: as §1

HCT116p53-/- = test: MTT cytotoxicity assay, HCT116p53-/-; format: cell-based; conditions: Homo sapiens
From the text: as §1

embryo = test: Toxicity in the CAM model, dead and surviving embryos; format: in vivo, White Leghorn eggs; conditions: 50 μmol·l^−1, after 6 days of treatment, FIG. 2C
Protocol: The toxicity after 6 days of the treatment was characterized by the number of dead embryos, eventual visible macroscopic abnormalities were evaluated as well.

U2OS = test: MTT cytotoxicity assay, U2OS; format: cell-based; conditions: Homo sapiens
From the text: as §1

human 17βHSD1 [2] = biological target: T1, human 17βHSD1; test: 17βHSD inhibition in CHO cells transfected with human 17βHSD1, E1 in supernatant; format: cell-based; design: expressed in transfected cells; conditions: 10 μmol·l^−1
Protocol: as §2

K562 = test: MTT cytotoxicity assay, K562; format: cell-based; conditions: Homo sapiens
From the text: as §1

BJ = test: MTT cytotoxicity assay, BJ fibroblasts; format: cell-based; conditions: Homo sapiens, non-tumor fibroblasts
From the text: as §1

CEM-DNR-bulk = test: MTT cytotoxicity assay, CEM-DNR-bulk; format: cell-based
From the text: as §1

17βHSD = test: Inhibition of 17βHSD in vivo, E2 in plasma of mice; design: species or system mice (NMRI); conditions: 20 mg/kg daily, orally; for E2 in plasma, individual mice: 20 mg/kg
HCT116p53 wt = test: MTT cytotoxicity assay, HCT116p53 wt; format: cell-based; conditions: Homo sapiens
From the text: as §1

## CCOc1ccc(CC[C@@H]2CC(=O)[C@@]3(C)CC[C@@H]4c5ccc(O)cc5CC[C@H]4[C@H]23)cc1 [Compound 12, 15β-(4-Ethoxyphenethyl)-3-hydroxy-estra-1,3,5(10)-trien-17-one]
other
  melting point: 173 °C

## COc1ccc(CC[C@@H]2CC(=O)[C@@]3(C)CC[C@@H]4c5ccc(O)cc5CC[C@H]4[C@H]23)cc1 [Compound 9, 3-Hydroxy-15β-(4-methoxyphenethyl)-estra-1,3,5 (10)-trien-17-one]
A549
  IC50: 41 µM
MRCS
  IC50: > 50 µM
Human 17βHSD1 [1]; 8 hr.
  E1 in supernatant, MCF-7: 1300 pg/mL
Human 17βHSD1 [1]; 24 hr.
  E1 in supernatant, MCF-7: 1182 pg/mL
T47D cells; 1 μmol·l^−1, without E1, 7 days
  effect on T47D proliferation, compound alone: weakly pro-proliferative
T47D cells; incubated together with 0.1 nmol·l^−1 E1, 7 days
  effect on E1-induced proliferation of T47D cells: reverses the pro-proliferative activity of E1; also recorded: blocks E1-induced proliferation
CEM
  IC50: 21.4 µM
K562-Tax
  IC50: 9.12 µM
HCT116p53-/-
  IC50: 35.7 µM
embryo
  toxicity, dead/alive eggs: No specific toxicity
U2OS
  IC50: 45.3 µM
Human 17βHSD1 [2]; 8 hr.
  E1 in supernatant, CHO: 1171 pg/mL
Human 17βHSD1 [2]; 24 hr.
  E1 in supernatant, CHO: 739 pg/mL
K562
  IC50: 27.7 µM
BJ
  IC50: > 50 µM
CEM-DNR-bulk
  IC50: 22.1 µM
17βHSD; 7 days
  E2 in plasma, mean value ± σ: 5693 ± 1034 pg/mL
  E2 in plasma, individual mice: 4927 pg/mL and 4357 pg/mL and 6020 pg/mL and 7379 pg/mL and 5857 pg/mL and 5617 pg/mL
17βHSD; 14 days
  E2 in plasma, mean value ± σ: 3874 ± 1253 pg/mL
  E2 in plasma, individual mice: 6020 pg/mL and 2668 pg/mL and 2657 pg/mL and 3566 pg/mL and 4312 pg/mL and 4025 pg/mL
HCT116p53 wt
  IC50: 29.4 µM
